Results as given in US20020173447A1, “Cytostatic effects of fatty acid synthase inhibition” (priority 2001, published 2002).

How the values were obtained:
[1] = system: RKO colon carcinoma cells; assay: DNA content of treated RKO cells by flow cytometry (cell cycle distribution); assay type: cell-based, human; conditions: 10 μg/ml; for cell cycle distribution (DNA content), early time points: 5 and 8 h
Experimental: Cells were cultured in DMEM with 10% fetal bovine serum (Hyclone). Cells were screened periodically for mycoplasma contamination (Gen-probe). Cerulenin (Sigma) C-75 and TOFA, dissolved in DMSO, were added from 5 mg/ml stock solutions; the final concentration of DMSO in cultures was at or below 0.2%. Cells were exposed to cerulenin or C-75 for the indicated doses and time intervals, then detached from plastic with trypsin for flow cytometry analysis. DNA content was measured by multiparameter flow cytometry using a FACStar^Plus flow cytometer equipped with argon and krypton lasers (Becton Dickinson).

RKO cells = assay: BrdU pulse/chase cell cycle progression by laser scanning cytometry; assay type: cell-based, human; conditions: 10 μg/ml, chase 4-24 h
Experimental: A similar experiment measured cell cycle progression by pulse/chase labeling with bromodeoxyuridine (BrdU, FIG. 2). The BrdU-positive S-phase fraction at time zero progresses through the cell cycle at later time points. B. The progress of BrdU pulse-labeled RKO cells through the cell cycle was monitored over 24 h without inhibition of FAS, or during exposure to cerulenin (10 μg/ml) or C-75 (10 μg/ml).
Dual-parameter detection of Bromodeoxyuridine (BrdU) labeling and DNA content was performed using a laser scanning cytometer (Compucyte Corp.). Cell cultures were pulse-labeled for 20 min with 10 μM BrdU, and chased for the indicated times in the absence or presence of drug, then detached from plastic with trypsin, ethanol-fixed and applied to glass slides. Cells were subjected to standard heat-induced epitope retrieval (DAKO) before staining with anti-BrdU antibody (DAKO) and FITC-conjugated goat anti-mouse antibody (CALTAG, DAKO Autostainer™). DNA content was assessed after staining with 0.5% propidium iodide. Data were collected and analyzed using WinCyte software (Compucyte Corp.).
A 20-min exposure of proliferating cells to BrdU labeled the S-phase population at time zero. Chase samples were collected at 4, 8, 16 and 24 h. In control cultures (FIG. 2A), the BrdU-labeled population progressed through G2/M, first reappearing in the G1 population in the 8 h chase sample. […]

[2] = system: cyclin A-associated kinase activity; assay: Immunocomplex-kinase assay after drug exposure of RKO cells, cyclin A; assay type: cell-based, human; conditions: 10 μg/ml, later time points (16 and 24 h)
Experimental: The effect of FAS inhibitors on the activity of cyclin/cdk complexes in RKO cells was determined in a time course analysis. After RKO cells were exposed to FAS inhibitors for the indicated time periods, cyclin A- and cyclin B 1-associated kinase activities were determined by an immunocomplex-kinase assay.
Five×10^6 RKO cells per 100-mm plate were treated with 10 μg/ml cerulenin or C-75 for the indicated time intervals. The control cells received equivalent amounts of DMSO. After drug treatment, the plates were washed once and lysed with immunoprecipitation (IP) buffer (150 mM Tris, pH 7.4, 150 mM NaCl, 1% Triton X-100, 0.5% NP-40, 1 mM ethyleneglyco-bis-tetraacetic acid, 0.2 mM sodium vanadate, and 0.2 mM phenylmethylsulfonyl fluoride). Protein concentration was measured using the BCA Protein Assay Kit (Pierce). One hundred μg of protein from each sample was incubated at 4° C. for 1 h with 1 μg of primary antibody (anti-human cyclin A rabbit polyclonal antibody or anti-human cyclin B 1 monoclonal antibody, Santa Cruz) and then overnight after addition of Protein A or protein G-Sepharose (Santa Cruz). […] Samples were resolved by electrophoresis through 12% SDS-polyacrylamide gels and quantitated on a Storm 820 system (Molecular Dynamics). […]

p53 = assay: Immunoblot of p53 protein in RKO cells; assay type: cell-based, human; conditions: 10 μg/ml, 16 and 24 h
Experimental: (§1) Accumulation of p53 protein, and the p53-regulated cdk inhibitor p21WAF1/CIP1, were assayed by immunoblotting in a parallel time course after inhibition of FAS (FIG. 4). Cells were treated with cerulenin (10 μg/ml) (A) or C-75 (10 μg/ml) (B) for the stated exposure times, and analyzed by immunoblotting for p53 and p21 protein content, with actin as an internal control. One million cells per 60-mm plate were treated with 10 μg/ml cerulenin or C-75 in duplicate for the indicated time intervals; control cells received equivalent amounts of DMSO. After drug treatment, cells were lysed with 200 μl Laemmli sample buffer and boiled. Ten μl of each lysate per lane was separated by SDS-PAGE, transferred to nitrocellulose, and exposed to antibodies against p53 (Pab1801, Oncogene Research Products), p21 (6B6, PharMingen) or actin (I-19, Santa Cruz), followed by horseradish peroxidase-conjugated goat anti-mouse or rabbit anti-goat antibody (Pierce), enhanced chemiluminescence (Amersham) and autoradiography.

p21WAF1/CIP1 = assay: Immunoblot of p21 protein in RKO cells; assay type: cell-based, human; conditions: 10 μg/ml, 16 and 24 h
Experimental: as §1

MCF7 breast cancer cells = assay: Alkaline single cell gel electrophoresis (comet assay), MCF7; assay type: cell-based, human; conditions: 3 h, doses bracketing 75% survival at 24 h
Text: This assay detects DNA strand breaks, and a spectrum of alkali-labile DNA damage at low levels (Singh, N. P., McCoy, M. T., Tice, R. R., and Schneider, E. L., “A simple Technique for Quantitation of Low Levels of DNA Damage in Individual Cells,” Experimental Cell Research, 175:184-191, (1988); Plappert, U., Raddatz, K., Roth, S., and Fliedner, T. M., “DNA-Damage Detection in Man After Radiation Exposure—the Comet Assay—Its Possible Application for Human Biomonitoring,” Stem Cells, 13 Supplement 1:215-222, (1995)).
Cerulenin- or C-75-treated MCF7 breast carcinoma cells were subjected to alkaline single cell gel electrophoresis (comet assay). MCF7 breast cancer cells were treated with cerulenin or C-75 for 3 h at doses bracketing 75% survival at 24 h. All experiments were repeated three times and duplicate slides from each experiment were prepared and scored. […] Neutralized, dehydrated slides were stained with ethidium bromide (2 ng/ml) and comets scored under a Nikon fluorescence microscope (with TRITC filters) coupled to a KOMET 4.0 software (Kinetic Imaging Ltd).
Olive tail moment indicates electrophoretic mobility of DNA induced by DNA damage. […] One hundred consecutive cells were scored from the middle of each slide, and the means calculated. The final results were expressed as the (mean of the individual means)±(standard deviation of the means). […]

fatty acid synthesis = conditions: cited from earlier work
RKO-p53 cells = assay: Apoptosis by merocyanine 540 multiparameter flow cytometry; assay type: cell-based, human
Text: The effect of p53 function on survival after FAS inhibition was investigated by comparing two pairs of isogenic cell lines with wild-type and altered p53 function. RKO cells were rendered p53-mutant by stable transfection with a dominant-negative mutant p53 gene (RKO-p53); the human breast carcinoma cell line MCF7 was rendered p53-deficient by constitutive expression of the human papilloma virus 16 E6 gene (MCF7-E6) (Fan, S., Smith, M. L., Rivet, D. J., 2nd, Duba, D., Zhan, Q., Kohn, K. W., Fornace, A. J., Jr., and PM, O. C., “Disruption of p53 Function Sensitizes Breast Cancer MCF-7 Cells to Cisplatin and Pentoxifylline,” Cancer Research, 55:1649-1654, (1995)).
Cells were exposed to cerulenin or C-75 for the indicated doses and time intervals, then detached from plastic with trypsin for flow cytometry analysis. Apoptosis was measured by multiparameter flow cytometry using a FACStar^Plus flow cytometer equipped with argon and krypton lasers (Becton Dickinson). […] Merocyanine 540-positive cells were identified using 488-nm excitation from an argon laser and a 575-nm DF26 bandpass filter for collection of events with increased red fluorescence. Data were collected and analyzed using CellQuest software (Becton Dickinson). […]

Compound: C=C1C(=O)OC(CCCCCCCC)C1C(=O)O (stereo not shown) [C-75]
- cell cycle distribution (DNA content), early time points [1]: This effect was characteristic of both cerulenin and C-75 treatment
- cell cycle progression of BrdU pulse-labeled cells (RKO cells): exhibited a similar response
- kinase activity associated with immunoprecipitated cyclin A complexes, later time points [2]: increased moderately
- p53 protein level (p53): induced accumulation
- p21 protein level (p21WAF1/CIP1): induced accumulation
- DNA damage, olive tail moment (MCF7 breast cancer cells): Neither cerulenin nor C-75 induced olive tail moments over background values
- inhibitory effects on fatty acid synthesis (fatty acid synthesis): comparable to those seen with cerulenin

Compound: CCCCCCCCCCCCCCOc1ccc(C(=O)O)o1 [TOFA, 5-(tetradecyloxy)-2-furoic acid]
- effect of pretreatment on FAS inhibitor mediated apoptosis (RKO-p53 cells; RKO-p53 cells, TOFA pretreatment): did rescue FAS inhibitor mediated apoptosis

Compound: C/C=C/C/C=C/CCC(=O)[C@H]1O[C@H]1C(N)=O [cerulenin, (2R, 3S)-2,3-epoxy-4-oxo-7,10-trans,trans-dodecadienamide]
- cell cycle distribution (DNA content), early time points [1]: redistribution of cells into S phase and G2/M
- cell cycle distribution (DNA content), late time points ([1]; 16 and 24 h): S-phase fraction decreased substantially, with a redistribution of cells into G1 and G2/M
- cell cycle progression of BrdU pulse-labeled cells (RKO cells): substantial delays in cell cycle progression
- kinase activity associated with immunoprecipitated cyclin A complexes, later time points [2]: increased moderately
- p53 protein level (p53): induced accumulation
- p21 protein level (p21WAF1/CIP1): induced accumulation
- DNA damage, olive tail moment (MCF7 breast cancer cells): Neither cerulenin nor C-75 induced olive tail moments over background values
- apoptosis (MC540) in p53-deficient cells compared to parent line (RKO-p53 cells; RKO-p53 vs parent RKO, 24 h exposure, 5 or 10 μg/ml): large, dose-dependent increase in apoptosis
